PubChem BioAssay AID248 (DTP/NCI, 2004)
“And” between values parts separate entries of the source, which are not always exact repeats. Equal entries are not always repeated. Inconclusive results and toxic doses are left out. Rule as the data show it: active = T/C of 150% or more; inactive = T/C below 125%.

Tested on: L1210 leukemia ip in BDF1 mice, survival T/C
Experiment: NCI In Vivo Anticancer Drug Screen. Data for tumor model L1210 Leukemia (intraperitoneal) in B6D2F1 (BDF1) mice
Conditions: endpoint: mean survival time, higher = longer survival
Procedure, shortened: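 Value reflects the ratio of survival in compound-treated mice to survival in vehicle-treated controls, with both groups carrying the same transplanted tumor.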

[1] = dose: 100.0 mg/kg/injection, schedule: Q04DX002 (ip), vehicle: Klucel (hydroxypropylcellulose) (HPC)
[2] = dose: 200.0 mg/kg/injection, schedule: Q04DX002 (ip), vehicle: Klucel (hydroxypropylcellulose) (HPC)
[3] = dose: 400.0 mg/kg/injection, schedule: Q04DX002 (ip), vehicle: Klucel (hydroxypropylcellulose) (HPC)
[4] = dose: 100.0 mg/kg/injection, schedule: Q01DX009 (ip), vehicle: saline
[5] = dose: 200.0 mg/kg/injection, schedule: Q01DX009 (ip), vehicle: saline
[6] = dose: 100.0 mg/kg/injection, schedule: Q04DX003 (ip), vehicle: other
[7] = dose: 200.0 mg/kg/injection, schedule: Q04DX003 (ip), vehicle: other
[8] = dose: 100.0 mg/kg/injection, schedule: Q04DX002 (ip), vehicle: saline with Tween-80
[9] = dose: 200.0 mg/kg/injection, schedule: Q04DX002 (ip), vehicle: saline with Tween-80
[10] = dose: 50.0 mg/kg/injection, schedule: Q04DX003 (ip), vehicle: saline with Tween-80
[11] = dose: 100.0 mg/kg/injection, schedule: Q04DX003 (ip), vehicle: saline with Tween-80
[12] = dose: 200.0 mg/kg/injection, schedule: Q04DX003 (ip), vehicle: saline with Tween-80
[13] = dose: 100.0 mg/kg/injection, schedule: Q01DX009 (ip), vehicle: saline with Tween-80
[14] = dose: 200.0 mg/kg/injection, schedule: Q01DX009 (ip), vehicle: saline with Tween-80
[15] = dose: 400.0 mg/kg/injection, schedule: Q01DX009 (ip), vehicle: saline with Tween-80
[16] = dose: 400.0 mg/kg/injection, schedule: Q04DX002 (ip), vehicle: saline with Tween-80
[17] = dose: 400.0 mg/kg/injection, schedule: Q04DX003 (ip), vehicle: saline with Tween-80
[18] = dose: 25.0 mg/kg/injection, schedule: Q01DX009 (ip), vehicle: saline with Tween-80
[19] = dose: 50.0 mg/kg/injection, schedule: Q01DX009 (ip), vehicle: saline with Tween-80
[20] = dose: 100.0 mg/kg/injection, schedule: Q01DX001 (ip), vehicle: saline
[21] = dose: 200.0 mg/kg/injection, schedule: Q01DX001 (ip), vehicle: saline
[22] = dose: 400.0 mg/kg/injection, schedule: Q01DX001 (ip), vehicle: saline
[23] = dose: 100.0 mg/kg/injection, schedule: Q04DX003 (ip), vehicle: Klucel (hydroxypropylcellulose) (HPC)
[24] = dose: 200.0 mg/kg/injection, schedule: Q04DX003 (ip), vehicle: Klucel (hydroxypropylcellulose) (HPC)

Measured: T/C

COc1ccc(-n2cccc2)cc1
inactive: dose: 100.0 mg/kg/injection, schedule: Q01DX001 (ip), vehicle: steriod suspending solution 95 % of control | [1] 90 % of control | dose: 200.0 mg/kg/injection, schedule: Q01DX001 (ip), vehicle: steriod suspending solution 100 % of control | [2] 90 % of control | dose: 400.0 mg/kg/injection, schedule: Q01DX001 (ip), vehicle: steriod suspending solution 106 % of control | [3] 94 % of control

C/C(=N/N(C)C)c1ccc([N+](=O)[O-])cc1
inactive: [4] 113 % of control | [5] 89 % of control

CN(C)N=Nc1ccc([N+](=O)[O-])cc1C(=O)O
inactive: dose: 25.0 mg/kg/injection, schedule: Q04DX003 (ip), vehicle: other 93 % of control | dose: 50.0 mg/kg/injection, schedule: Q04DX003 (ip), vehicle: other 98 % of control | dose: 100.0 mg/kg/injection, schedule: Q01DX009 (ip), vehicle: Klucel (hydroxypropylcellulose) (HPC) 100 % of control | [6] 98 % of control | dose: 200.0 mg/kg/injection, schedule: Q01DX009 (ip), vehicle: Klucel (hydroxypropylcellulose) (HPC) 103 % of control | [7] 101 % of control | dose: 400.0 mg/kg/injection, schedule: Q01DX009 (ip), vehicle: Klucel (hydroxypropylcellulose) (HPC) 110 % of control | dose: 400.0 mg/kg/injection, schedule: Q04DX003 (ip), vehicle: other 98 % of control

O=C(O)/C=C\C(Cl)(Cl)Cl
inactive: [8] 97 % of control | [9] 93 % of control

C1=CC2C3C=CC(C3)C2C1 (configuration not stated)
inactive: [10] 95 % of control | [11] 95 % of control | [12] 93 % of control

COc1c(C)c(C)c(OC)c(Br)c1C
inactive: dose: 100.0 mg/kg/injection, schedule: Q01DX001 (ip), vehicle: saline with Tween-80 98 % of control | [13] 95 % of control | dose: 200.0 mg/kg/injection, schedule: Q01DX001 (ip), vehicle: saline with Tween-80 102 % of control | [14] 98 % of control | dose: 400.0 mg/kg/injection, schedule: Q01DX001 (ip), vehicle: saline with Tween-80 98 % of control | [15] 106 % of control

COc1cc2cc3c4cc(OC)c(OC)cc4cc[n+]3c(/C=C/c3cc(OC)c(OC)c(OC)c3)c2cc1OC
inactive: [8] 96 % of control and 106 % of control | [11] 94 % of control | [9] 97 % of control and 104 % of control | [12] 96 % of control | [16] 104 % of control and 92 % of control | [17] 91 % of control

CC1CN(c2ccncc2N)CCN1c1ccc(Cl)cc1 (configuration not stated)
inactive: [11] 110 % of control | [12] 105 % of control | [17] 105 % of control

O=C(Nc1ccc(Cl)cc1[N+](=O)[O-])Oc1cc2ccccc2cc1C(=O)Nc1ccccc1
inactive: [13] 100 % of control and 88 % of control | [8] 93 % of control and 94 % of control | [14] 86 % of control and 87 % of control | [9] 94 % of control and 101 % of control | [15] 93 % of control and 96 % of control | [16] 94 % of control and 90 % of control

O=C1NC(=O)C(c2ccccc2)(C2CCC2)N1 (configuration not stated)
inactive: [13] 93 % of control | [14] 103 % of control | [15] 95 % of control

CN(C(=O)c1ccccc1C(=O)c1n[nH]c2ccccc12)c1ccccc1
inactive: dose: 50.0 mg/kg/injection, schedule: Q04DX002 (ip), vehicle: Klucel (hydroxypropylcellulose) (HPC) 104 % of control | [1] 97 % of control | [2] 104 % of control

NNCCO
inactive: [18] 97 % of control | dose: 25.0 mg/kg/injection, schedule: Q04DX002 (ip), vehicle: saline with Tween-80 94 % of control | [19] 106 % of control | dose: 50.0 mg/kg/injection, schedule: Q04DX002 (ip), vehicle: saline with Tween-80 105 % of control | [8] 106 % of control

CCCC1CC=CCC12C(=O)NC(=O)NC2=O (configuration not stated)
inactive: [20] 103 % of control | [21] 97 % of control | [22] 97 % of control

Cc1ccc(NCc2ccccc2)cc1
inactive: [6] 112 % of control | [7] 92 % of control

CN(C)C(C#N)C(=O)c1ccccc1 (configuration not stated)
inactive: [20] 97 % of control and 98 % of control | [22] 93 % of control

CCSCCC(C)(N)C(=O)O (configuration not stated)
inactive: [1] 97 % of control | [2] 93 % of control | [3] 89 % of control

CCCCCCCCCCN=C(N)CSSCC(N)=NCCCCCCCCCC
inactive: dose: 0.39 mg/kg/injection, schedule: Q04DX002 (ip), vehicle: saline with Tween-80 95 % of control | dose: 0.78 mg/kg/injection, schedule: Q04DX002 (ip), vehicle: saline with Tween-80 100 % of control | dose: 1.56 mg/kg/injection, schedule: Q04DX002 (ip), vehicle: saline with Tween-80 105 % of control

Cc1ccc(C(=O)Cl)cc1S(=O)(=O)F
inactive: [18] 95 % of control | dose: 25.0 mg/kg/injection, schedule: Q04DX003 (ip), vehicle: saline with Tween-80 96 % of control | [19] 104 % of control | [10] 100 % of control | [11] 96 % of control | [12] 94 % of control and 102 % of control

COc1cc(CCl)c(CCl)c(OC)c1OC
inactive: dose: 75.0 mg/kg/injection, schedule: Q01DX001 (ip), vehicle: carboxymethylcellulose (CMC) 96 % of control | dose: 150.0 mg/kg/injection, schedule: Q01DX001 (ip), vehicle: carboxymethylcellulose (CMC) 95 % of control | dose: 300.0 mg/kg/injection, schedule: Q01DX001 (ip), vehicle: carboxymethylcellulose (CMC) 93 % of control

COc1ccc(CCNC(=S)NCCc2ccc(OC)c(OC)c2)cc1OC
inactive: dose: 25.0 mg/kg/injection, schedule: Q01DX009 (ip), vehicle: saline 100 % of control | dose: 50.0 mg/kg/injection, schedule: Q01DX009 (ip), vehicle: saline 92 % of control | [4] 98 % of control | dose: 100.0 mg/kg/injection, schedule: Q04DX003 (ip), vehicle: saline 86 % of control | [5] 92 % of control | dose: 200.0 mg/kg/injection, schedule: Q04DX003 (ip), vehicle: saline 86 % of control

O=c1[nH]c(-c2ccc(O)cc2)nc2[nH]ncc12
inactive: [23] 88 % of control | [24] 86 % of control

CCS(=O)(=O)/C=C/c1ccncc1
inactive: dose: 25.0 mg/kg/injection, schedule: Q04DX002 (ip), vehicle: saline 104 % of control | dose: 50.0 mg/kg/injection, schedule: Q04DX002 (ip), vehicle: saline 101 % of control | dose: 100.0 mg/kg/injection, schedule: Q04DX002 (ip), vehicle: saline 111 % of control and 113 % of control

CC(C)(SCCc1ccncc1)C(N)C(=O)O (configuration not stated)
inactive: [23] 97 % of control | [24] 92 % of control | dose: 400.0 mg/kg/injection, schedule: Q04DX003 (ip), vehicle: Klucel (hydroxypropylcellulose) (HPC) 94 % of control

O=C1c2c(O)cccc2C(C2OC(CO)C(O)C(O)C2O)c2cc(CO)cc(O)c21 (configuration not stated)
inactive: [20] 98 % of control | [21] 98 % of control | [22] 104 % of control
